Measurements taken from patent US20090036492A1, “Novel Cercosporamide Derivative” (priority 2005, published 2009).

These compounds were tested on male KK mice (assay: Blood glucose lowering effect in diabetic KK mice). Conditions: Mus musculus, po, 72 h, 15 to 20 weeks old, feed containing 0.03% of the compound, three days, blood glucose on the 3rd day vs control group, read-out: Blood glucose lowering efficacy (%).
Format: in vivo
Source text: Six-week-old male KK mice were purchased from CLEA Japan, Inc. and then were fed until 15 to 20 weeks old and affected with diabetes. The mice were individually fed during the adaptation period and the test period, and water and feed (FR2, Funabashi Farm) were freely ingested.
At the start of the experiment, after body weight measurement, blood was collected from the tail vein of the mice into a heparin-coated glass tube and centrifuged, and then plasma was separated. The glucose level in the plasma was measured by Glucoloader GXT (A&T Corp.), and individuals having a blood glucose level of about 350 mg/dl or more were selected. Groups each having 3 to 4 mice were used for the experiment, and the mice were grouped to make the average body weight and the average blood glucose level similar. Each compound was administered to a compound administration group by feeding a mixture with feed containing 0.03% of the compound. A separate group in which the mice were fed only with feed was a control group.
The experiment period (drug administration period) was three days. The grouping day was the 0th day. On the 3rd day, body weight was measured and blood was collected from the tail vein to measure the blood glucose level.
The blood glucose lowering efficacy was determined by the following formula.
Blood glucose lowering efficacy=[(Control group blood glucose level−Compound administration group blood glucose level)/Control group blood glucose level]×100
For `COc1cc(O)c2c(c1C(=O)NCc1c(C)cc(NS(=O)(=O)c3cc(C)c(Cl)cc3Cl)cc1C)OC1=CC(O)=C(C(C)=O)C(=O)[C@]12C` [Example 140, (9aS)-8-Acetyl-N-(4-{[(2,4-dichloro-5-methylphenyl)sulfonyl]amino}-2,6-dimethylbenzyl)-1,7-dihydroxy-3-methoxy-9a-methyl-9-oxo-9,9a-dihydrodibenzo[b,d]furan-4-carboxamide], the inhibition in vivo at 0.03 % in feed was 18%. With `COc1cc(O)c2c(c1C(=O)NCc1c(C)ccc3c(F)cccc13)OC1=CC(O)=C(C(C)=O)C(=O)[C@]12C` [Example 183, (9aS)-8-Acetyl-N-[(5-fluoro-2-methyl-1-naphthyl)methyl]-1,7-dihydroxy-3-methoxy-9a-methyl-9-oxo-9,9a-dihydrodibenzo[b,d]furan-4-carboxamide] the inhibition in vivo at 0.03 % in feed was 38%. Work on `COc1cc(O)c2c(c1C(=O)NCc1ccc(OCc3ccccc3Cl)c3ccccc13)OC1=CC(O)=C(C(C)=O)C(=O)[C@]12C` [Example 147, (9aS)-8-Acetyl-N-({4-[(2-chlorobenzyl)oxy]-1-naphthyl}methyl)-1,7-dihydroxy-3-methoxy-9a-methyl-9-oxo-9,9a-dihydrodibenzo[b,d]furan-4-carboxamide] yielded an inhibition in vivo at 0.03 % in feed of 62%. For `COc1cc(O)c2c(c1C(=O)NCc1c(C)cc(C)c3ccccc13)OC1=CC(O)=C(C(C)=O)C(=O)[C@]12C` [Example 171, (9aS)-8-Acetyl-1,7-dihydroxy-3-methoxy-9a-methyl-N-[(2,4-dimethyl-1-naphthyl)methyl]-9-oxo-9,9a-dihydrodibenzo[b,d]furan-4-carboxamide], the inhibition in vivo at 0.03 % in feed was 47%. With `CCc1ccc2ccc(F)c(F)c2c1CNC(=O)c1c(OC)cc(O)c2c1OC1=CC(O)=C(C(C)=O)C(=O)[C@]12C` [Example 193, (9aS)-8-Acetyl-N-[(2-ethyl-7,8-difluoro-1-naphthyl)methyl]-1,7-dihydroxy-3-methoxy-9a-methyl-9-oxo-9,9a-dihydrodibenzo[b,d]furan-4-carboxamide] the inhibition in vivo at 0.03 % in feed was 50%. `CCc1ccc2ccc(F)cc2c1CNC(=O)c1c(OC)cc(O)c2c1OC1=CC(O)=C(C(C)=O)C(=O)[C@]12C` [Example 184, (9aS)-8-Acetyl-N-[(2-ethyl-7-fluoro-1-naphthyl)methyl]-1,7-dihydroxy-3-methoxy-9a-methyl-9-oxo-9,9a-dihydrodibenzo[b,d]furan-4-carboxamide] was tested, and the inhibition in vivo at 0.03 % in feed was 37%. `COc1cc(O)c2c(c1C(=O)NCc1ccc(OCc3ccc(F)cc3)c3ccccc13)OC1=CC(O)=C(C(C)=O)C(=O)[C@]12C` [Example 106, (9aS)-8-Acetyl-N-({4-[(4-fluorobenzyl)oxy]-1-naphthyl}methyl)-1,7-dihydroxy-3-methoxy-9a-methyl-9-oxo-9,9a-dihydrodibenzo[b,d]furan-4-carboxamide] was tested, and the inhibition in vivo at 0.03 % in feed was 51%. `COc1cc(O)c2c(c1C(=O)NCc1c(C)cc(F)c3ccccc13)OC1=CC(O)=C(C(C)=O)C(=O)[C@]12C` [Example 180, (9aS)-8-Acetyl-N-[(4-fluoro-2-methyl-1-naphthyl)methyl]-1,7-dihydroxy-3-methoxy-9a-methyl-9-oxo-9,9a-dihydrodibenzo[b,d]furan-4-carboxamide] was tested, and the inhibition in vivo at 0.03 % in feed was 60%. For `COc1cc(O)c2c(c1C(=O)NCc1c(C)c(C)cc3ccccc13)OC1=CC(O)=C(C(C)=O)C(=O)[C@]12C` [Example 54, (9aS)-8-Acetyl-1,7-dihydroxy-3-methoxy-9a-methyl-N-[(2,3-dimethyl-1-naphthyl)methyl]-9-oxo-9,9a-dihydrodibenzo[b,d]furan-4-carboxamide], the inhibition in vivo at 0.03 % in feed was 34%. `CO/N=C(\C)C1=C(O)C=C2Oc3c(C(=O)NCc4c(C)ccc5ccccc45)c(OC)cc(O)c3[C@]2(C)C1=O` [Example 87, (9aS)-1,7-Dihydroxy-3-methoxy-8-[(1E)-N-methoxyethaneimidoyl]-9a-methyl-N-[(2-methyl-1-naphthyl)methyl]-9-oxo-9,9a-dihydrodibenzo[b,d]furan-4-carboxamide] showed an inhibition in vivo at 0.03 % in feed of 45%. For `COc1cc(O)c2c(c1C(=O)NCc1c(C)cc(NS(=O)(=O)c3ccc(Cl)cc3Cl)cc1C)OC1=CC(O)=C(C(C)=O)C(=O)[C@]12C` [Example 111, (9aS)-8-Acetyl-N-(4-{[(2,4-dichlorophenyl)sulfonyl]amino}-2,6-dimethylbenzyl)-1,7-dihydroxy-3-methoxy-9a-methyl-9-oxo-9,9a-dihydrodibenzo[b,d]furan-4-carboxamide], the inhibition in vivo at 0.03 % in feed was 31%. Compound `CCc1ccc2ccc(Cl)cc2c1CNC(=O)c1c(OC)cc(O)c2c1OC1=CC(O)=C(C(C)=O)C(=O)[C@]12C` [Example 186, (9aS)-8-Acetyl-N-[(7-chloro-2-ethyl-1-naphthyl)methyl]-1,7-dihydroxy-3-methoxy-9a-methyl-9-oxo-9,9a-dihydrodibenzo[b,d]furan-4-carboxamide] has an inhibition in vivo at 0.03 % in feed of 53%. Compound `COc1cc(O)c2c(c1C(=O)NCc1ccc(OCc3ccccc3)c3ccccc13)OC1=CC(O)=C(C(C)=O)C(=O)[C@]12C` [Example 104, (9aS)-8-Acetyl-N-{[4-(benzyloxy)-1-naphthyl]methyl}-1,7-dihydroxy-3-methoxy-9a-methyl-9-oxo-9,9a-dihydrodibenzo[b,d]furan-4-carboxamide] has an inhibition in vivo at 0.03 % in feed of 53%. Compound `CCc1cc(F)c2ccccc2c1CNC(=O)c1c(OC)cc(O)c2c1OC1=CC(O)=C(C(C)=O)C(=O)[C@]12C` [Example 187, (9aS)-8-Acetyl-N-[(2-ethyl-4-fluoro-1-naphthyl)methyl]-1,7-dihydroxy-3-methoxy-9a-methyl-9-oxo-9,9a-dihydrodibenzo[b,d]furan-4-carboxamide] has an inhibition in vivo at 0.03 % in feed of 44%. Work on `COc1cc(O)c2c(c1C(=O)NCc1c(C)ccc3c(F)c(F)c(F)cc13)OC1=CC(O)=C(C(C)=O)C(=O)[C@]12C` [Example 190, (9aS)-8-Acetyl-1,7-dihydroxy-3-methoxy-9a-methyl-9-oxo-N-[(5,6,7-trifluoro-2-methyl-1-naphthyl)methyl]-9,9a-dihydrodibenzo[b,d]furan-4-carboxamide] yielded an inhibition in vivo at 0.03 % in feed of 58%. Compound `CCc1cc(F)c2ccc(C)cc2c1CNC(=O)c1c(OC)cc(O)c2c1OC1=CC(O)=C(C(C)=O)C(=O)[C@]12C` [Example 189, (9aS)-8-Acetyl-N-[(2-ethyl-4-fluoro-7-methyl-1-naphthyl)methyl]-1,7-dihydroxy-3-methoxy-9a-methyl-9-oxo-9,9a-dihydrodibenzo[b,d]furan-4-carboxamide] has an inhibition in vivo at 0.03 % in feed of 47%. `COc1cc(O)c2c(c1C(=O)NCc1ccc(Oc3ccc(Cl)cc3Cl)c3ccccc13)OC1=CC(O)=C(C(C)=O)C(=O)[C@]12C` [Example 164, (9aS)-8-Acetyl-N-{[4-(2,4-dichlorophenoxy)-1-naphthyl]methyl}-1,7-dihydroxy-3-methoxy-9a-methyl-9-oxo-9,9a-dihydrodibenzo[b,d]furan-4-carboxamide] gave an inhibition in vivo at 0.03 % in feed of 43%. For `CCc1ccc2c(F)cc(F)cc2c1CNC(=O)c1c(OC)cc(O)c2c1OC1=CC(O)=C(C(C)=O)C(=O)[C@]12C` [Example 185, (9aS)-8-Acetyl-N-[(2-ethyl-5,7-difluoro-1-naphthyl)methyl]-1,7-dihydroxy-3-methoxy-9a-methyl-9-oxo-9,9a-dihydrodibenzo[b,d]furan-4-carboxamide], the inhibition in vivo at 0.03 % in feed was 27%. With `CCc1ccc2cccc(F)c2c1CNC(=O)c1c(OC)cc(O)c2c1OC1=CC(O)=C(C(C)=O)C(=O)[C@]12C` [Example 192, (9aS)-8-Acetyl-N-[(2-ethyl-8-fluoro-1-naphthyl)methyl]-1,7-dihydroxy-3-methoxy-9a-methyl-9-oxo-9,9a-dihydrodibenzo[b,d]furan-4-carboxamide] the inhibition in vivo at 0.03 % in feed was 42%. `CCC#CCOc1cc(C)c(CNC(=O)c2c(OC)cc(O)c3c2OC2=CC(O)=C(C(C)=O)C(=O)[C@]23C)c(C)c1` [Example 101, (9aS)-8-Acetyl-N-[2,6-dimethyl-4-(2-pentynyloxy)benzyl]-1,7-dihydroxy-3-methoxy-9a-methyl-9-oxo-9,9a-dihydrodibenzo[b,d]furan-4-carboxamide] gave an inhibition in vivo at 0.03 % in feed of 47%. `COc1cc(O)c2c(c1C(=O)NCc1c(C)cc(Br)c3ccccc13)OC1=CC(O)=C(C(C)=O)C(=O)[C@]12C` [Example 177, (9aS)-8-Acetyl-N-[(4-bromo-2-methyl-1-naphthyl)methyl]-1,7-dihydroxy-3-methoxy-9a-methyl-9-oxo-9,9a-dihydrodibenzo[b,d]furan-4-carboxamide] was tested, and the inhibition in vivo at 0.03 % in feed was 43%. Work on `COc1cc(O)c2c(c1C(=O)NCc1c(C)c(C)c(C)c3ccccc13)OC1=CC(O)=C(C(C)=O)C(=O)[C@]12C` [Example 69, (9aS)-8-Acetyl-1,7-dihydroxy-3-methoxy-9a-methyl-N-[(2,3,4-trimethyl-1-naphthyl)methyl]-9-oxo-9,9a-dihydrodibenzo[b,d]furan-4-carboxamide] yielded an inhibition in vivo at 0.03 % in feed of 47%. With `COc1cc(O)c2c(c1C(=O)NCc1ccc(Oc3ccc(Cl)cc3)c3ccccc13)OC1=CC(O)=C(C(C)=O)C(=O)[C@]12C` [Example 167, (9aS)-8-Acetyl-N-{[4-(4-chlorophenoxy)-1-naphthyl]methyl}-1,7-dihydroxy-3-methoxy-9a-methyl-9-oxo-9,9a-dihydrodibenzo[b,d]furan-4-carboxamide] the inhibition in vivo at 0.03 % in feed was 30%.
